Test results as given in patent US20230135093A1, “TRIAZOLYL DERIVATIVES AS GABA A ALPHA5 PAM” (Hoffmann-La Roche Inc., priority 2020, published 2023).
pKi: −log10 of the molar value.

Assays:
h-GABA-A α5β3γ2 [1] = molecular target: T1, h-GABA-A α5β3γ2 (Homo sapiens, UniProt P18507+P31644); experiment: [3H]flumazenil competition binding assay on membranes of HEK293 cells expressing GABAA receptors
T1 construct: expressed in transfected cells; host or cells: Xenopus laevis oocytes, micro-injected with subunit RNA
How it was run: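 Competition for [3H]flumazenil (0.5 nM for α5 subunits) was measured at equilibrium (1 h, 4 °C, Krebs-tris buffer pH 7.5) on transiently transfected HEK293 membranes bearing human α5β3γ2 receptors, with 10^−5 M diazepam defining nonspecific binding. Ki values were derived from filtration and scintillation counting, averaged over duplicates.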

h-GABA-A α5β3γ2 [2] = molecular target: T1, h-GABA-A α5β3γ2; experiment: Two-electrode voltage clamp electrophysiology in Xenopus oocytes expressing GABAA receptors (modulation of GABA EC20 current); assay type: cell-based
How it was run: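 GABA EC20 currents in human α5β3γ2-expressing Xenopus oocytes, voltage-clamped at −80 mV (room temperature, pH 7.4), measured with and without compound at ~30× Ki applied 0.5 min into the second GABA pulse. % modulation = 100×(fold increase−1), taken from the extremum of the current ratio trace; at least 3 oocytes per concentration.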

[3] = Table 1, displacement of [3H]-Flumazenil (0.5 nM), HEK293 cells expressing human receptors, means of two determinations
[4] = Table 1, % modulation of GABA EC20 = 100*(Fold increase-1)
[5] = Table 1, Xenopus oocytes, GABA EC20, test compound at approximatively 30 fold its Ki

In the case of `CCn1nnc(-c2ccc(Cl)cc2F)c1Cn1ncc(N2CC(OC(C)(C)C)C2)cc1=O` [Example 97, 5-(3-tert-butoxyazetidin-1-yl)-2-[[5-(4-chloro-2-fluoro-phenyl)-3-ethyl-triazol-4-yl]methyl]pyridazin-3-one], the pKi (h-GABA-A α5β3γ2 [1]; [3]) was 7.35, the “Efficacy (GABA) %” value (h-GABA-A α5β3γ2 [2]; [4]) was 115% and the “Fold increase h-GABA-A α5β3γ2 oocyte” value (h-GABA-A α5β3γ2 [2]; [5]) was 2.15.
For `Cn1nnc(-c2ccccc2F)c1COc1ccc(-n2cnc(C(F)F)c2)nn1` [RO-007, reference compound], the pKi (h-GABA-A α5β3γ2 [1]; Table 2, reference compounds, displacement of [3H]-Flumazenil) was 7.23, the “Efficacy (GABA) %” value (h-GABA-A α5β3γ2 [2]; Table 2, reference compounds, % modulation of GABA EC20) was −28% and the “Fold increase h-GABA-A α5β3γ2 oocyte” value (h-GABA-A α5β3γ2 [2]; Table 2, reference compounds, GABAA α5β3γ2 overexpressing oocytes, GABA EC20) was 0.72.
In the case of `COc1ncc(-c2cnn(Cc3c(-c4ccc(Cl)cc4F)nnn3C)c(=O)c2)cc1Cl` [Example 69, 2-((5-(4-chloro-2-fluoro-phenyl)-3-methyl-triazol-4-yl)methyl)-5-(5-chloro-6-methoxy-3-pyridyl)pyridazin-3-one], the pKi (h-GABA-A α5β3γ2 [1]; [3]) was 8.37, the “Efficacy (GABA) %” value (h-GABA-A α5β3γ2 [2]; [4]) was 125% and the “Fold increase h-GABA-A α5β3γ2 oocyte” value (h-GABA-A α5β3γ2 [2]; [5]) was 2.25.
`COc1ncc(-c2cnn(Cc3c(-c4ccc(C(F)(F)F)nn4)nnn3C)c(=O)c2)cc1Cl` [Example 123, 5-(5-chloro-6-methoxypyridin-3-yl)-2-((1-methyl-4-(6-(trifluoro-methyl)pyridazin-3-yl)-1H-1,2,3-triazol-5-yl)methyl)pyridazin-3(2H)-one] was tested, and the pKi (h-GABA-A α5β3γ2 [1]; [3]) was 8.12, the “Efficacy (GABA) %” value (h-GABA-A α5β3γ2 [2]; [4]) was 148% and the “Fold increase h-GABA-A α5β3γ2 oocyte” value (h-GABA-A α5β3γ2 [2]; [5]) was 2.48.
For `CCCOC1CN(c2cnn(Cc3c(-c4ccc(Cl)cc4F)nnn3C)c(=O)c2)C1` [Example 51, 2-((5-(4-chloro-2-fluoro-phenyl)-3-methyl-triazol-4-yl)methyl)-5-(3-propoxyazetidin-1-yl)pyridazin-3-one], the pKi (h-GABA-A α5β3γ2 [1]; [3]) was 7.67, the “Efficacy (GABA) %” value (h-GABA-A α5β3γ2 [2]; [4]) was 94% and the “Fold increase h-GABA-A α5β3γ2 oocyte” value (h-GABA-A α5β3γ2 [2]; [5]) was 1.94.
